Reference: patent US10526646B2, “Chromogenic peroxidase substrates” (Dako Denmark A/S, priority 2015, dated 2020)
Values after ≈ are worked out from the molar mass of the structure shown.

Assays:
HRP [1] = target: T1, HRP (Armoracia rusticana, UniProt P00433); experiment: Tissue staining with mixtures of chromogens in chromogen buffer; design: species or system horse radish
T1 construct: purchased Dako K4061
T1 sequence (P00433 31-338): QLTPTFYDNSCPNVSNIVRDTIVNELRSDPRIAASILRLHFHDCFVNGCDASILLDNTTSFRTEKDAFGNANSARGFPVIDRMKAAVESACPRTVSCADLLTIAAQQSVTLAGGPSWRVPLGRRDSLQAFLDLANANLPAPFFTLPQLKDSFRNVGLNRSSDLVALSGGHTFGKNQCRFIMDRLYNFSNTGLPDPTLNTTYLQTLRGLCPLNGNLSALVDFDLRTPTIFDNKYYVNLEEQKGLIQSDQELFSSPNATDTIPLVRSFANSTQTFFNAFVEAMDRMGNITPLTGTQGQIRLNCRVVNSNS

HRP [2] = target: T1, HRP; experiment: IHC staining of FFPE human tissues and Her2 control cell lines, Envision+ Dual link HRP visualization, DAB as reference; design: species or system horse radish; settings: for colour of IHC stain / stain intensity and crispness compared with DAB: tested in 0.4 to 1 mM; for stain intensity and crispness compared with DAB: low and medium expression targets
[3] = UV-VIS absorbance maxima of chromogenic conjugates and mixtures; format: physicochemical
Protocol: “Spectrally narrow” refers to a chromogen having less that 50 nm broadness at its maximum absorbance at half peak height by UV-VIS spectroscopy, measured in +99% water at pH, 6-8 in 10 μM concentration. A “magenta chromogen” is a spectrally narrow chromogen with peak absorbance between 525 and 530 nm, measured in +99% water at pH, 6.0-8.0 in 10 μM concentration. A “greenish-yellow chromogen” is a chromogen with peak absorbance below 475 nm and less than 10% absorbance at 530 nm or above relative to the peak absorbance, measured in +99% water at pH, 6.0-8.0 in 10 μM concentration. A “yellow chromogen” is a chromogen with peak absorbance below 505 nm and less than 10% absorbance at 530 nm or above relative to the peak absorbance, measured in +99% water at pH, 6.0-8.0 in 10 μM concentration. A “cyan chromogen” is a chromogen having maximal absorbance above 615 nm and less than 10% relative absorbance at any wavelength between 530 and 400 nm relative to the peak absorbance, measured in +99% water at pH, 6.0-8.0 m 10 μM concentration. An “orange chromogen” is a “spectrally narrow” chromogen that has maximum absorbance between 495 and 520 nm, measured in +99% water at pH, 6-8 in 10 μM concentration. A “dichroic chromogen” is a chromogen that has at least two absorbance maxima, separated by a local minimum at least 50 nm wide and one further global minimum between 390 and 700 nm measured in water between pH 6 and 8.

HRP [4] = target: T1, HRP; experiment: Triple immunohistochemical staining (Ki67, CD20, Her2) on Dako Autostainer; design: species or system horse radish; settings: 0.5 mM conjugate, 50 mM imidazole:HCl pH 6.8, 0.003% hydrogen peroxide, 2.5% NMP, 5 min
Protocol: The exemplary triple staining method employed DAB in combination with Compounds 2 and 8, on a Dako Autostainer at room temperature. The steps of the method included: • 1. Blocking of endogenous peroxidase with peroxidase block (Dako S2023), 5 min. • 2. antiKi67 RTU antibody (Dako IR626), 20 mm • 3. Envision+dual Link HRP (Dako K4061), 20 min • 4. DAB (Dako K3468) 5 min. • 5. HRP quenching with peroxidase block (Dako S2023) with addition of 5 mg/mL alphacyano cinnamic acid, 5 min. • 6. antiCD20cy RTU antibody (Dako IR604), 20 min • 7. Envision+dual Link HRP (Dako K4061), 20 min • 8. 0.5 mM compound 2 in 50 mM imidazole: HCl pH 6.8, 0.003% hydrogen peroxide and 2.5% NMP, 5 min. • 9. HRP quenching with peroxidase block (Dako S2023) with addition of 5 mg/mL alphacyano cinnamic acid, 5 min. • 10. antiHer2 (Dako vial ST301 from HercepTest kit SK001) 20 min. • 11. Envision+dual Link HRP (Dako K4061), 20 min • 12. 0.5 mM compound 8 in 50 mM imidazole: HCl pH 6.8, 0.003% hydrogen peroxide and 2.5% NMP, 5 min. • 13. Counter stain with haematoxylin (Dako S3301)

HRP [5] = target: T1, HRP; experiment: Fast CISH on human tissue slides, antiFITC-HRP; design: species or system horse radish; settings: 1 mM in substrate buffer pH 6.8, 0.003% hydrogen peroxide, 5 min
[6] = Solubility in substrate buffer as function of percentage of NMP; format: physicochemical
Protocol: Only Compound 6 having a piperazine amide stands out by absorbing at 536 nm, around 5 nm above the esters comprising Compounds 2, 13, 14 and 15 all with abs max within 531-533 nm. […] Addition of NMP to the buffer in all cases increased chromogen solubility. See result table below of the solubility of 2, 13 and 15 as function of percentage of NMP as organic co solvent, 0% representing neat aqueous buffer 50 mM imidazole: HCl, pH 6.8, 3% and 10% said percent.

colour of IHC stain (HRP [2])	Absp nm (max) [3]	stain produced in triple staining (HRP [4])	solubility ([6]; imidazole:HCl buffer (substrate buffer) with 3% NMP, aqueous buffer, 3% NMP in 50 mM imidazole:HCl pH 6.8)	solubility ([6]; imidazole:HCl buffer (substrate buffer) with 10% NMP, aqueous with cosolvent or surfactant or cyclodextrin, 10% NMP in 50 mM imidazole:HCl pH 6.8)	solubility ([6]; imidazole:HCl buffer (substrate buffer), 0% NMP, neat aqueous buffer 50 mM imidazole:HCl pH 6.8)	SMILES	intensity compared with DAB (HRP [1]; 0.6 mM in 15 mM imidazole pH 6.8, 4% NMP, 0.1% NP40-Nonidet, 0.01% Benzalkonium chloride, 0.03% hydrogen peroxide)	colour of stain of compound alone (HRP [1]; alone)	IHC staining performance of Rhodamine 6G derivatives with different 4-hydroxy cinnamic acid derivatives (HRP [2]; peroxidase substrate moiety varied)	stain intensity and crispness compared with DAB (HRP [2])	staining in the high expression range (HRP [2]; very high expression targets, trained observers)	mutagenicity (Mutagenicity test)	CISH signals (HRP [5])
red stains	531 nm	red Her2 membrane stain	1200 µM (≈ 899 µg/mL)	3600 µM (≈ 2700 µg/mL)	1000 µM (≈ 749 µg/mL)	CC/N=c1\cc2oc3cc(NCC)c(C)cc3c(-c3ccccc3C(=O)OCC(=O)NCCOCCOCCNC(=O)/C=C/c3ccc(O)cc3)c-2cc1C [Compound 2, Rhodamine 6G-L12-Cou]	matching DAB in intensity in the low range	changed from bright magenta at low intensities toward more full reds at higher intensities	both strong and crisp stains with no background	fully matched DAB in intensity and crispness	performed better and more dynamically in the high expression range	does not have significant mutagenicity	large and distinct dots in both Tonsil tissues
slightly bluish purple stains	567 nm	purple CD20 membrane stain				CCN(CC)c1ccc2c(-c3ccccc3C(=O)N3CCN(CC(=O)NCCOCCOCCNC(=O)/C=C/c4ccc(O)cc4)CC3)c3ccc(=[N+](CC)CC)cc-3oc2c1 [Compound 8, RhodamineB-Pip-L12-Cou]				more than matched DAB in intensity and crispness			
